# According to PubChem BioAssay (NCI):
# Where “and” joins values, the source holds several entries; their conditions need not be identical. Equal values may be shown once.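 Cells were grown in 96-well plates and exposed to each compound for 48 hours at five concentrations; endpoints were interpolated linearly between bracketing concentrations, or set to the highest concentration if not reached. GI50 is the concentration that inhibits growth by half. At the TGI there is no net growth.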
# Assays:
# Assay in all cases: growth of human tumour cells (NCI), 48 h
# [1] = test system: TK-10 renal
# [2] = test system: A498 renal
# [3] = test system: K-562 leukemia
# [4] = test system: OVCAR-3 ovarian
# [5] = test system: NCI-H460 lung
# [6] = test system: HL-60(TB) leukemia
# [7] = test system: IGROV1 ovarian
# [8] = test system: MOLT-4 leukemia
# [9] = test system: MDA-MB-231 breast
# [10] = test system: PC-3 prostate
SMILES,TGI [1],TGI [2],TGI [3],TGI [4],TGI [5],TGI [6],TGI [7],TGI [8],GI50 [1],GI50 [3],GI50 [4],GI50 [5],GI50 [6],GI50 [7],GI50 [2],GI50 [8],GI50 [9],TGI [9],GI50 [10],TGI [10]
CSC(C1c2ccccc2N(c2ccc(C)cc2)C2=NC(=O)N(C)C(=O)C21Cl)S(=O)(=O)c1ccc(C)cc1 (stereo not given),> 100 µM,92.7 µM,53.9 µM,30.9 µM,64.8 µM,12.6 µM,85.6 µM,32 µM,,,,,,,,,,,,
O=C1CCC2(c3ccc(F)cc3)Nc3cc(Cl)ccc3N12 (stereo not given),,> 100 µM,> 100 µM,> 100 µM,,> 100 µM,> 100 µM,> 100 µM,,,,,,,,,,,,
OCC(O)CC[CH2][Sn]([Br])([c]1ccccc1)[c]1ccccc1 (stereo not given),> 100 µM,,> 100 µM,> 100 µM,> 100 µM,> 100 µM,> 100 µM,,> 100 µM,> 100 µM,> 100 µM,> 100 µM,52000 nM,> 100 µM,,,,,,
CCOC(=O)[C]1([Bi]([CH3])[CH3])N=NC(C(=O)OC)=C1C(=O)OC (stereo not given),32.1 µM,49 µM,65.7 µM,31.7 µM,> 100 µM,52.1 µM,51.9 µM,63.9 µM,17.3 µM,16.5 µM,16.5 µM,> 100 µM,21200 nM,24.6 µM,25.7 µM,23300 nM,,,,
COC(=O)C1Cc2c(n(Cc3ccccc3)c3ccccc23)C(CCC(=O)O)N1C(C)C (stereo not given),> 100 µM,> 100 µM,> 100 µM,> 100 µM,> 100 µM,> 100 µM,> 100 µM,> 100 µM,,,,,,,,,,,,
O=C(/C=C/c1c(O)ccc2ccccc12)c1cccc(O)c1,> 100 µM,> 100 µM,> 100 µM,> 100 µM,> 100 µM,> 64.3 µM,> 100 µM,> 100 µM,,,,,,,,,,,,
O=C(O)CNS(=O)(=O)c1ccc(NCc2ccccc2)cc1,> 100 µM,,> 100 µM,,> 100 µM,,> 100 µM,> 100 µM,,,,,,,,,,,,
CCOC(=O)C1=C(OC(OCC)C(CC)[Se]c2ccccc2)CCCC1 (stereo not given),> 100 µM,> 100 µM,> 100 µM,65.7 µM,> 100 µM,47.8 µM,> 100 µM,52.1 µM,,,,,,,,,,,,
N#Cc1cc([N+](=O)[O-])ccc1NC(=O)C(=O)Nc1n[nH]c(N)n1,> 100 µM,> 100 µM,> 100 µM,> 100 µM,> 100 µM,> 100 µM,> 100 µM,> 100 µM,,,,,,,,,,,,
NC(=O)c1ccc(I)c(N)c1,> 100 µM,,,> 100 µM,> 100 µM,> 100 µM,> 100 µM,> 100 µM,> 100 µM,,> 100 µM,> 100 µM,> 100000 nM,> 100 µM,,> 100000 nM,> 100000 nM,> 100 µM,,
O=C1CCCCN1CCCCC#Cc1ccccc1C#Cc1ccc([N+](=O)[O-])cc1,30.5 µM,25 µM,22.3 µM,23.6 µM,4.35 µM,6.64 µM,37.5 µM,9.22 µM,7.72 µM,3.6 µM,10.9 µM,2 µM,1750 nM,8.21 µM,4.01 µM,2790 nM,12800 nM,51.4 µM,,
COC12C=C(C)C(CC1)CC2C(=O)O (stereo not given),> 100 µM,> 100 µM,> 100 µM,> 100 µM,> 100 µM,> 100 µM,> 100 µM,> 100 µM,,,,,,,,,,,,
CC(=O)CNC(=O)OC(C)(C)C,> 100 µM,> 100 µM,> 100 µM,> 100 µM,> 100 µM,> 100 µM,> 100 µM,> 100 µM,,,,,,,,,,,,
Oc1c(CN2CCC(N3CCCCC3)CC2)cc(Cc2cc(CN3CCC(N4CCCCC4)CC3)c(O)c3ncccc23)c2cccnc12,10.3 µM,18 µM,8.81 µM,10.1 µM,11.5 µM,,17.3 µM,6.22 µM,1.14 µM,0.617 µM,0.517 µM,0.287 µM,,1.16 µM,5.02 µM,300 nM,329 nM,14.4 µM,1280 nM,15.9 µM
O=C1C2c3[nH]c4ccccc4c3C3CCCCCCC3C2C(=O)N1c1ccccc1 (stereo not given),27 µM,39.9 µM,24.9 µM,17.2 µM,18.6 µM,,,,,,,,,,,,,,,
CCN(CC)c1ccc(/C=C/c2ccc3cc(C)ccc3[n+]2CC)cc1,11.8 µM,1.78 µM,13.5 µM,0.995 µM,,0.429 µM,18.1 µM,2.65 µM,0.146 µM,0.036 µM,0.075 µM,,29.7 nM,0.201 µM,0.149 µM,161 nM,215 nM,2.16 µM,66.4 nM,6.17 µM
C/C(CC(=O)Nc1cc(Cl)c(Cl)cc1Cl)=N\NC(N)=O,> 100 µM,,> 100 µM,> 100 µM,,> 100 µM,> 100 µM,> 100 µM,,,,,,,,,,,,
CCc1ccc(/C=C\c2cc(OC)c(OC)c(OC)c2)cc1,,0.433 µM and 0.389 µM,,0.206 µM,,,,,,,,0.0329 µM,17.2 nM,,0.0233 µM,,,0.25 µM,,
COc1ccc(-c2cc(=O)c3c(OC)c(OC)c(OC)cc3o2)cc1,> 100 µM,84 µM,> 100 µM,94.9 µM,81.4 µM,> 100 µM,> 100 µM,> 100 µM,,,,,,,,,,> 100 µM,,
COC(=O)c1c/c(=N\NC(=O)CC(=O)Nc2ccccc2OC)c2ccccc2o1,> 100 µM,> 100 µM,> 100 µM,> 100 µM,> 100 µM,> 100 µM,> 100 µM,> 100 µM,,,,,,,,,,,,
C[C@@H]1OC(O)[C@@H](F)[C@H](O)[C@@H]1O (stereo not given in full),> 100 µM,> 100 µM,,> 100 µM,> 100 µM,> 100 µM,> 100 µM,> 100 µM,> 100 µM,,> 100 µM,> 100 µM,> 100000 nM,> 100 µM,> 100 µM,> 100000 nM,> 100000 nM,> 100 µM,> 100000 nM,> 100 µM

SMILES,TGI [1],TGI [2],TGI [3],TGI [4],TGI [5],TGI [6],TGI [7],TGI [8],GI50 [1],GI50 [3],GI50 [4],GI50 [5],GI50 [6],GI50 [7],GI50 [2],GI50 [8],GI50 [9],TGI [9],GI50 [10],TGI [10]
Oc1ccc(NCc2nc3ccccc3[nH]2)cc1,> 100 µM,> 100 µM,,> 100 µM,> 100 µM,> 100 µM,> 100 µM,> 100 µM,> 100 µM,,33.8 µM,41.9 µM,> 100000 nM,76.4 µM,14.7 µM,> 100000 nM,38400 nM,> 100 µM,33600 nM,> 100 µM
O=C1/C(=C/c2ccccc2)CNC/C1=C\c1ccccc1,7.61 µM,4.57 µM,> 23.8 µM,3.09 µM,3.08 µM,,3.63 µM,3.36 µM,,,,,,,,,,,,
C[C@]12CC[C@H]3[C@@H](CC=C4C[C@@H](O)CC[C@@]43C)[C@@H]1CC[C@@H]2N(CCO)CCO,> 100 µM,73 µM,> 100 µM,> 100 µM,> 100 µM,,> 100 µM,> 100 µM,,,,,,,,,,> 100 µM,,> 100 µM
CCCCN=C(NC#N)NCCCC,> 100 µM,> 100 µM,> 100 µM,> 100 µM,> 100 µM,,> 100 µM,> 100 µM,,,,,,,,,,,,
O=C(c1ccccc1)c1nnc(C(=O)c2ccccc2)nn1,> 344 µM,,> 344 µM,> 344 µM,> 344 µM,> 344 µM,> 344 µM,> 344 µM,,,,,,,,,,,,
Cc1cccc(C)c1NC(=O)C(=O)C1C(=O)NC(=O)NC1=O,> 100 µM,> 100 µM,> 100 µM,> 100 µM,> 100 µM,> 100 µM,> 100 µM,> 100 µM,,,,,,,,,,,,
Cc1cc2c(cc1C)[n+](=O)c(C(=O)C/C(=N/NC(=O)CC#N)C(=O)Nc1ccccc1C(F)(F)F)c(C)n2[O-],> 100 µM,> 100 µM,> 100 µM,> 100 µM,> 100 µM,86 µM,> 100 µM,> 100 µM,,,,,,,,,,,,
COC(=O)/C(=N/NC(=O)C[N+](C)(C)C)C(C(=O)OC)C(=O)C(=O)Nc1ccc(F)cc1 (stereo not given),> 100 µM,> 100 µM,> 100 µM,> 100 µM,> 100 µM,> 100 µM,> 100 µM,> 100 µM,,,,,,,,,,,,
O=C1CCC(=O)N2CCCCN12,> 100 µM,> 100 µM,> 100 µM,> 100 µM,> 100 µM,> 100 µM,> 100 µM,> 100 µM,,,,,,,,,,,,
CCC[CH2][Sn]1([CH2]CCC)[O]Cc2nc(C)ccc2[O]1,14.7 µM,26.8 µM,10.5 µM,17 µM,31.1 µM,4.64 µM,28.8 µM,10.7 µM,3.97 µM,3.17 µM,5.05 µM,16 µM,1580 nM,14.9 µM,13.3 µM,3040 nM,,,,
Brc1cccc(C=NC23CC4CC(CC(C4)C2)C3)c1,> 100 µM,> 100 µM,> 100 µM,> 100 µM,> 100 µM,> 100 µM,> 100 µM,> 100 µM,,,,,,,,,,,,
O=c1[nH]ncc(Br)c1Br,10.7 µM,24 µM,,3.18 µM,27.4 µM,4.27 µM,3.68 µM,5.19 µM,3.45 µM,,1.75 µM,13.1 µM,2220 nM,1.72 µM,11.8 µM,2410 nM,1680 nM,3.56 µM,5450 nM,20.8 µM
COc1ccc(/C=C/CN(C)CCc2ccccc2)cc1OC,> 100 µM,,> 100 µM,> 100 µM,,,> 100 µM,> 100 µM,,,,,,,,,,,,
Nc1nc(Cl)c2ncn(Cc3ccc(C45CC6CC(CC(C6)C4)C5)c(O)c3)c2n1,8.93 µM,24.4 µM,,11.1 µM,15.6 µM,11.7 µM,21.9 µM,16.2 µM,2.2 µM,,2.32 µM,4.03 µM,1220 nM,4.72 µM,8.15 µM,1250 nM,1850 nM,11.4 µM,1730 nM,4.44 µM
O=c1c2cc([N+](=O)[O-])ccc2sc2ccsc12,,> 100 µM,> 100 µM,> 100 µM,> 100 µM,> 100 µM,> 100 µM,> 100 µM,,,,,,,,,,,,
O=C1c2cc(Cl)ccc2S(=O)(=O)c2c(NCCCNCCO)nc3ccccc3c21,2.46 µM,9.34 µM,,1.66 µM,4.73 µM,6.79 µM,9.56 µM,5.63 µM,1.21 µM,,0.478 µM,2.02 µM,2100 nM,2.88 µM,2.95 µM,1820 nM,1490 nM,2.94 µM,1530 nM,3.66 µM
[Cl-].[Dy+3].[O-]/N=C(\c1ccccc1)c1ccccn1.[O-]/N=C(\c1ccccc1)c1ccccn1.[O-]/N=C(\c1ccccc1)c1ccccn1,> 100 µM,> 100 µM,> 100 µM,92.6 µM,> 100 µM,58.4 µM,> 100 µM,78.7 µM,46.3 µM,35.9 µM,24.4 µM,28.8 µM,18400 nM,33.1 µM,25.8 µM,8470 nM,,,,
O=C(/N=N/C(=O)OCc1ccccc1)OCc1ccccc1,> 100 µM,,> 100 µM,> 100 µM,> 100 µM,> 100 µM,> 100 µM,> 100 µM,,,,,,,,,,,,
CCC(C)c1c(Cl)nc(Cl)nc1Cl (stereo not given),41.3 µM,,> 100 µM,14.8 µM,34.2 µM,> 100 µM,34.5 µM,> 100 µM,,,,,,,,,,,,44.1 µM
CCC[CH2][Sn]([CH2]CCC)([O]C(=O)c1cccnc1SC)[O]C(=O)c1cccnc1SC,1.69 µM,1.95 µM,0.372 µM,2.63 µM,3.47 µM,1.05 µM,2.72 µM,0.929 µM,0.527 µM,0.0482 µM,1.33 µM,1.66 µM,160 nM,1.38 µM,0.676 µM,149 nM,,,,
CC(C)(C)C1C=C(Sc2ccccc2)C(=O)O1 (stereo not given),> 100 µM,> 100 µM,> 100 µM,> 100 µM,> 100 µM,55.7 µM,> 100 µM,> 100 µM,,,,,,,,,,,,
